Source: US4582827A, “Pesticidal diphenylaziridines” (priority 1983, dated 1986)

Key:
[1] = system: Salmonella typhimurium strains TA 98, TA 100, TA 1535, TA 1537, TA 1538, TA 1978; experiment: Ames assay (spot test), revertant colonies; format: cell-based
Description: This means that aziridine compounds, 1, 10, or 11, will not cause mutations in DNA arising from potential changes in frame shift and/or base pairing. Compounds 1, 10 and 11 were tested for mutagenic properties using the following experimental procedure.
Potential mutagenic and carcinogenic properties of the compounds were evaluated with standard Ames assay procedures (Ames et al, "Mutation Res.", 31, p. 347, 1975). This assay used strains of Salmonella typhimurium selected for sensitivity and specificity in being reverted from a histidine requirement back to prototrophy by a wide variety of mutagens. Potential changes in frameshift were evaluated using strains TA 98, TA 1537 and TA 1538, while changes in base pairing were detected using strains TA 100 and TA 1535. In addition, strain TA 1978 was used, in combination with TA 1538, to evaluate whether the agent killed bacteria by damage to DNA that could be repaired by this strain. Initially, the compounds were screened using the spot test, in which 1000 μgm of material dissolved in 10 μl of DNSO was applied to the middle of the plate.
Dose-response tests were not performed because the results were negative. All the tests were carried out in the presence and absence of an S9 rat liver preparation and contained a positive control (2-acetylaminofluorene,AAF) and a negative control (DMSO).

[2] = system: tobacco hornworm larvae (newly ecdysed fifth-instar); experiment: Topical application to tobacco hornworm larvae; format: in vivo, Manduca sexta
Description: The test compounds were dissolved either in acetone or hexane and applied to the integument of the test insect with a micro applicator. Newly ecdysed fifth-instar tobacco hornworm larvae weighing between 1-1.5 g were used and toxicity data were obtained in the same way as previously described.

H. virescens = experiment: Incorporation into H. virescens diet; format: in vivo, Heliothis virescens; conditions: as much as 20 mM in diet
Description: Compounds 1, 10, 11, 13 and 14 were incorporated into H. virescens diet in the same manner as M. Sexta. Diets containing as much as 20 mM of each compound had little effect on larval development time, pupal weight or time to adult emergence.

[3] = system: tobacco hornworm (Manduca sexta) larvae; experiment: Tobacco hornworm growth and developmental responses to feeding on diets containing the compounds; format: in vivo; conditions: for oral activity: diet, Example 2
[4] = Acute oral toxicity test using the rat; conditions: in vivo
Excerpt: In these studies, it has been determined that the 1,2-diphenylaziridines of this invention have low mammalian toxicity.
Immediate effects, resulting from insecticide toxicity, are usually related to the principal toxic action of the compound.

[5] = system: Ostrinia nubilalis (larvae); experiment: Topical application study, Ostrinia nubilalis larvae; format: in vivo; conditions: 6250 μg/g, approx. 80 mg; nearing pupation size at time of treatment
Excerpt: (§1) Preliminary tests with topical applications of Compound 13 have been conducted on a number of insect species representing 5 different orders. Since the same amount of compound was used, regardless of body size, the smaller species received a larger dose/body mass. More extensive work will be required to establish LD50 values. […]

Musca domestica (Adult) = experiment: Topical application study, Musca domestica adult; format: in vivo; conditions: 25,000 μg/g
Excerpt: as §1

[6] = system: Popillia japonica (larvae); experiment: Topical application study, Popillia japonica larvae; format: in vivo; conditions: 500 μg/g, approx. 250 mg, w/in 24 hr
Excerpt: as §1

[7] = system: Periplaneta americana (adult); experiment: Topical application study, Periplaneta americana adult; format: in vivo; conditions: 666 μg/g, approx. 750 mg, w/in 24 hr
Excerpt: as §1

Musca autumnalis (Adult) = experiment: Topical application study, Musca autumnalis adult; format: in vivo; conditions: 25,000 μg/g
Excerpt: as §1

Estigmene acrea (larvae) = experiment: Topical application study, Estigmene acrea larvae; format: in vivo; conditions: 1250 μg/g, approx. 800 mg, w/in 24 hr
Excerpt: as §1

[8] = system: Hyphantria cunea (larvae); experiment: Topical application study, Hyphantria cunea larvae; format: in vivo; conditions: 5000 μg/g, approx. 100 mg, w/in 24 hr
Excerpt: as §1

[9] = system: Malacosoma americanum (larvae); experiment: Topical application study, Malacosoma americanum larvae; format: in vivo; conditions: 1000 μg/g, approx. 500 mg, w/in 24 hr
Excerpt: as §1

[10] = system: Blattella germanica (adult); experiment: Topical application study, Blattella germanica adult; format: in vivo; conditions: 7150 μg/g, approx. 70 mg, w/in 24 hr
Excerpt: as §1

H. virescens larvae = experiment: Topical application to H. virescens larvae; format: in vivo, Heliothis virescens; conditions: 1500 ppm topical, 200 mg 5th instars
[11] = system: Podisus maculiventris (nymphs & adults); experiment: Topical application study, Podisus maculiventris nymphs & adults; format: in vivo; conditions: 10,000 μg/g
Excerpt: as §1

[12] = system: Blaberus discoidalis (nymphs); experiment: Topical application study, Blaberus discoidalis nymphs; format: in vivo; conditions: 1000 μg/g, approx. 500 mg, w/in 24 hr
Excerpt: as §1

[13] = 5 mM in diet, all tests began with 15 larvae

Clc1ccc(N2CC2c2ccccc2Cl)cc1Cl (centres unmarked) [Compound 10, 1-(3-4-dichlorophenyl)-2-(2-chlorophenyl)aziridine]
Mean number of revertant colonies per plate, TA 98 +S9 ([1]; strain TA 98, +S9): 45.3 colonies per plate
Mean number of revertant colonies per plate, TA 98 -S9 ([1]; strain TA 98, -S9): 26.7 colonies per plate
Mean number of revertant colonies per plate, TA 100 +S9 ([1]; strain TA 100, +S9): 56.0 colonies per plate
Mean number of revertant colonies per plate, TA 100 -S9 ([1]; strain TA 100, -S9): 26.3 colonies per plate
Mean number of revertant colonies per plate, TA 1535 +S9 ([1]; strain TA 1535, +S9): 20.3 colonies per plate
Mean number of revertant colonies per plate, TA 1535 -S9 ([1]; strain TA 1535, -S9): 25.0 colonies per plate
Mean number of revertant colonies per plate, TA 1537 +S9 ([1]; strain TA 1537, +S9): 13.7 colonies per plate
Mean number of revertant colonies per plate, TA 1537 -S9 ([1]; strain TA 1537, -S9): 9.0 colonies per plate
Mean number of revertant colonies per plate, TA 1538 +S9 ([1]; strain TA 1538, +S9): 35.7 colonies per plate
Mean number of revertant colonies per plate, TA 1538 -S9 ([1]; strain TA 1538, -S9): 12.0 colonies per plate
Mean number of revertant colonies per plate, TA 1978 +S9 ([1]; strain TA 1978, +S9): 202.0 colonies per plate
Mean number of revertant colonies per plate, TA 1978 -S9 ([1]; strain TA 1978, -S9): 196.0 colonies per plate
mutagenicity ([1]; with and without S9 / mammalian liver enzymes): not mutagenic
topical effect ([2]; 2000 μg/larvae (1600 ppm)): ineffective
effect on larval development time, pupal weight or time to adult emergence (H. virescens): little effect
% Adult Emergence ([3]; 5 mM in diet): 7%
% Malformed Adults ([3]; 5 mM in diet): 100%
% Pupation ([3]; 5 mM in diet): 80%
Days to Max Wt ([3]; 5 mM in diet): 7.5 ± .3 days
Max Larval Wt ([3]; 5 mM in diet): 5.69 ± .27 g
Mean No. of Eggs ([3]; 5 mM in diet): 55 ± 0
No. of female Adults ([3]; 5 mM in diet): 1
feeding time required to attain reduced maximum weight ([3]; 5 mM in diet): extended the feeding time
pupal mortality ([3]; 5 mM in diet): significant pupal mortality
reduction in the maximum weight of hornworm larvae ([3]; 5 mM in diet): 30-50%
wrinkled or crumpled wings of moths ([3]; 5 mM in diet): observed in significant numbers of moths
Total No. of Adults [3, 13]: 1
oral activity [3]: good oral activity
pupal mortality ([3]; summary of Tables I and II): caused pupal mortality
LD50 [4]: > 2000 mg/kg

Fc1ccc(N2CC2c2ccccc2Cl)cc1 (centres unmarked) [Compound 13]
Result [5]: No effect
time to 100% mortality (Musca domestica (Adult)): ≤ 1.5 h
mortality at 25000 µg/g (Musca domestica (Adult); Musca domestica, topical, approx. 20 mg, 2/in 1.5 hr): 100%
mortality at 500 µg/g [6]: 100%
mortality at 666 µg/g [7]: 100%
time to 100% mortality (Musca autumnalis (Adult)): ≤ 2 h
mortality at 25000 µg/g (Musca autumnalis (Adult); Musca autumnalis, topical, approx. 20 mg, w/in 2 hr): 100%
mortality at 1250 µg/g (Estigmene acrea (larvae)): 33%
mortality at 5000 µg/g [8]: 50%
mortality at 125 µg/larva ([2]; Manduca sexta, topical, 125 μg/larva (100 μg/g or 100 ppm), within 24 hr): 60%
topical activity against the tobacco hornworm (comparison in words) ([2]; topical): the greatest topical activity
larval size and number of eggs ([2]; topical, 50 and 25 ppm): reduced larval size and smaller number of eggs
mortality at 1000 µg/g [9]: 100%
effect on larval development time, pupal weight or time to adult emergence (H. virescens): little effect
mortality at 7150 µg/g [10]: 100%
mortality (H. virescens larvae): failed to kill any of the larvae
symptoms (H. virescens larvae): produced some of the symptoms characteristic of this group of compounds
% Adult Emergence ([3]; 1 mM in diet): 100%
% Adults ([3]; 1 mM in diet): 100%
% Malformed Adults ([3]; 1 mM in diet): 7%
% Pupation ([3]; 1 mM in diet): 100%
Days to Max Wt ([3]; 1 mM in diet): 6.7 ± .2 days
Max Larval Wt ([3]; 1 mM in diet): 9.50 g
Mean No. of Eggs ([3]; 1 mM in diet): 71 ± 8
No. of female Adults ([3]; 1 mM in diet): 11
Total No. of Adults ([3]; 1 mM in diet): 15
% Adult Emergence ([3]; 2.5 mM in diet): 86%
% Adults ([3]; 2.5 mM in diet): 86%
% Malformed Adults ([3]; 2.5 mM in diet): 0%
% Pupation ([3]; 2.5 mM in diet): 100%
Days to Max Wt ([3]; 2.5 mM in diet): 8.7 ± 0.5 days
Max Larval Wt ([3]; 2.5 mM in diet): 8.03 g
Mean No. of Eggs ([3]; 2.5 mM in diet): 21 ± 9
No. of female Adults ([3]; 2.5 mM in diet): 9
Total No. of Adults ([3]; 2.5 mM in diet): 12
maximum larval weight and mean number of eggs ([3]; 2.5 mM in diet): reduced maximum larval weight and the mean number of eggs
% Adult Emergence ([3]; 5 mM in diet): 13%
% Malformed Adults ([3]; 5 mM in diet): 50%
% Pupation ([3]; 5 mM in diet): 13%
Days to Max Wt ([3]; 5 mM in diet): 10.0 ± 4.2 days
Max Larval Wt ([3]; 5 mM in diet): 6.13 ± .62 g
No. of female Adults ([3]; 5 mM in diet): 0
larval mortality ([3]; 5 mM in diet): all or nearly all larvae died
weight gain of surviving larvae ([3]; 5 mM in diet): no weight gain for 4 or more days
wrinkled or crumpled wings of moths ([3]; 5 mM in diet): observed in significant numbers of moths
larvae dead by day two ([3]; 5 mM in diet, day two): 60%
Total No. of Adults [3, 13]: 2
oral activity [3]: good oral activity
larval mortality (acute toxicity) ([3]; in 24-72 hours, summary of Tables I and II): 100%
time to 100% larval mortality ([3]; summary of Tables I and II): 24 to 72 h
time to 100% mortality [11]: ≤ 1.2 h
mortality at 10000 µg/g ([11]; Podisus maculiventris, topical, approx. 50 mg, w/in 1.2 hr): 100%
mortality at 1000 µg/g [12]: 100%
